Reference: patent US20220088016A1, “CANCER TREATMENT USING MULTI-TARGETED KINASE INHIBITOR IN COMBINATION OF PROTEIN KINASE BIOMARKERS” (ZHEJIANG CROWNMAB BIOTECH CO. LTD., priority 2019, published 2022)

Key:
TYRO3 = TYRO3 (Homo sapiens, UniProt Q06418); assay: Kinase profiling; format: binding; details: read-out: % Ctrl @ 1000 nM
CSNK1G3 = CSNK1G3 (Homo sapiens, UniProt Q9Y6M4); assay: Kinase profiling; format: binding; details: read-out: % Ctrl @ 1000 nM
KIT (V559D, V654A) = KIT (V559D, V654A) (Homo sapiens, UniProt P10721, V559D/V654A); assay: Kinase profiling; format: binding; details: read-out: % Ctrl @ 1000 nM
DDR1 (h) = biological target: T1, DDR1 (h) (Homo sapiens, UniProt Q08345); assay: Kinase IC50 (Eurofins KinaseProfiler); format: biochemical
T1 construct: purchased Eurofins (KinaseProfiler service)
Experimental: (§1) CBT-102 were tested against each of the selected kinases using the Eurofins standard KinaseProfder assays and following the relevant standard operating procedures. The required volume of the 50× stock of test compound (CBT-102) was added to the assay well, before a reaction mix containing the enzyme and substrate was added. The reaction was initiated by the addition of ATP at the selected concentration. There was no pre-incubation of the compound with the enzyme/substrate mix prior to ATP addition.
(§2) Data are handled using a custom-built in-house analysis software. Results are expressed as kinase activity remaining, as a percentage of the DMSO control. This is calculated using the following formula: […]
(§3) For IC50 determinations, data are analyzed using XLFit version 5.3 (ID Business Solutions).

CDKL3 (h) = biological target: T2, CDKL3 (h) (Homo sapiens, UniProt Q8IVW4); assay: Kinase IC50 (Eurofins KinaseProfiler); format: biochemical
T2 construct: purchased Eurofins (KinaseProfiler service)
Experimental: as §1, §2, §3

PDGFRα (V561D) (h) = biological target: T3, PDGFRα (V561D) (h) (Homo sapiens, UniProt P16234, V561D); assay: Kinase IC50 (Eurofins KinaseProfiler); format: biochemical
T3 construct: purchased Eurofins (KinaseProfiler service)
T3 sequence (P16234 24-1089 V561D): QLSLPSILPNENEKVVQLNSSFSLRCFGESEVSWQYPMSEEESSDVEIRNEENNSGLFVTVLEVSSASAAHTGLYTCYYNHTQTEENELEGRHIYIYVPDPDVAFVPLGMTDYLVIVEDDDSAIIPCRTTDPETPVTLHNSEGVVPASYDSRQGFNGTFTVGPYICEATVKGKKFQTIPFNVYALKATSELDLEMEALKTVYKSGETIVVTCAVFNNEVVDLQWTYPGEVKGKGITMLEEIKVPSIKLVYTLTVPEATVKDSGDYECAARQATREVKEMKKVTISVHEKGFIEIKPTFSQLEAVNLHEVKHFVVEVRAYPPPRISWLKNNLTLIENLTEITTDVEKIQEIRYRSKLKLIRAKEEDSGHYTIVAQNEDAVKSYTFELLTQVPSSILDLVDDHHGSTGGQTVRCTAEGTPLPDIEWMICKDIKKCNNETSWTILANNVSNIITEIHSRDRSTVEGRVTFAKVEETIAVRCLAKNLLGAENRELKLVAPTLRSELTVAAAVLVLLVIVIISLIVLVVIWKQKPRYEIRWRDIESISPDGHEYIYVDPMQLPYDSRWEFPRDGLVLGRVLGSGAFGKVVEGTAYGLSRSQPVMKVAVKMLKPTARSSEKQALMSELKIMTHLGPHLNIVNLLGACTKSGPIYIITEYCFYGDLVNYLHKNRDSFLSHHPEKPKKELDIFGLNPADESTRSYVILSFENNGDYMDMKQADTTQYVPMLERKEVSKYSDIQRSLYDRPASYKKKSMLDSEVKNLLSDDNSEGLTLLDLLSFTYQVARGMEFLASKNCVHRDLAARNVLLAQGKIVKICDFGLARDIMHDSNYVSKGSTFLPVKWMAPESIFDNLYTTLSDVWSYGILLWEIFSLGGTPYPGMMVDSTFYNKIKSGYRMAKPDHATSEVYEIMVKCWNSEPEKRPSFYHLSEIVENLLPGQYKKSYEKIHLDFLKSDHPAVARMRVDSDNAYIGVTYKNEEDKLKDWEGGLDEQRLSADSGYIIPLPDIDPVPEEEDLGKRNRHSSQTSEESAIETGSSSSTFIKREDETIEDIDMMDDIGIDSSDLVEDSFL
Experimental: as §1, §2, §3

MAP4K4 (h) = biological target: T4, MAP4K4 (h) (Homo sapiens, UniProt O95819); assay: Kinase IC50 (Eurofins KinaseProfiler); format: biochemical
T4 construct: purchased Eurofins (KinaseProfiler service)
Experimental: as §1, §2, §3

Flt3 (h) = biological target: T5, Flt3 (h) (Homo sapiens, UniProt P36888); assay: Kinase IC50 (Eurofins KinaseProfiler); format: biochemical
T5 construct: purchased Eurofins (KinaseProfiler service)
Experimental: as §1, §2, §3

SAPK2a (h) = biological target: T6, SAPK2a (h) (Homo sapiens, UniProt Q16539); assay: Kinase IC50 (Eurofins KinaseProfiler); format: biochemical
T6 construct: purchased Eurofins
Experimental: as §1, §2, §3

FGFR2 (h) = biological target: T7, FGFR2 (h) (Homo sapiens, UniProt P21802); assay: Kinase IC50 (Eurofins KinaseProfiler); format: biochemical
T7 construct: purchased Eurofins (KinaseProfiler service)
Experimental: as §1, §2, §3

Fgr (h) = biological target: T8, Fgr (h) (Homo sapiens, UniProt P09769); assay: Kinase IC50 (Eurofins KinaseProfiler); format: biochemical
T8 construct: purchased Eurofins (KinaseProfiler service)
T8 sequence (P09769 whole entry): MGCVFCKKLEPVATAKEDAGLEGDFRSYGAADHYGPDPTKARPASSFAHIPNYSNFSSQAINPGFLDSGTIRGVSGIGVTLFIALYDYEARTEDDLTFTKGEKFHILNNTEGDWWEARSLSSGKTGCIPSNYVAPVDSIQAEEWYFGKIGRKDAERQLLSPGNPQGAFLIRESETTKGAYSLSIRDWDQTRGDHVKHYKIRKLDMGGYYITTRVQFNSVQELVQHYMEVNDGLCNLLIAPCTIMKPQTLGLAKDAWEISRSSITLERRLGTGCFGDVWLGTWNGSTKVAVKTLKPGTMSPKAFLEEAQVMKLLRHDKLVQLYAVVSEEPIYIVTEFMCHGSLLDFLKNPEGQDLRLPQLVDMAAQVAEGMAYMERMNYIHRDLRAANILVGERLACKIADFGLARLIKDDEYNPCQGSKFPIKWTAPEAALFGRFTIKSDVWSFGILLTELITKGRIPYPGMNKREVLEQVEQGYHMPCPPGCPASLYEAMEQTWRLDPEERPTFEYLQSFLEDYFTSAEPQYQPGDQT
Experimental: as §1, §2, §3

FAK (h) = biological target: T9, FAK (h) (Homo sapiens, UniProt Q05397); assay: Kinase IC50 (Eurofins KinaseProfiler); format: biochemical
T9 construct: purchased Eurofins (KinaseProfiler service)
Experimental: as §1, §2, §3

TAK1 (h) = biological target: T10, TAK1 (h) (Homo sapiens, UniProt O43318); assay: Kinase IC50 (Eurofins KinaseProfiler); format: biochemical
T10 construct: purchased Eurofins
T10 sequence (O43318 1-303 limits assumed): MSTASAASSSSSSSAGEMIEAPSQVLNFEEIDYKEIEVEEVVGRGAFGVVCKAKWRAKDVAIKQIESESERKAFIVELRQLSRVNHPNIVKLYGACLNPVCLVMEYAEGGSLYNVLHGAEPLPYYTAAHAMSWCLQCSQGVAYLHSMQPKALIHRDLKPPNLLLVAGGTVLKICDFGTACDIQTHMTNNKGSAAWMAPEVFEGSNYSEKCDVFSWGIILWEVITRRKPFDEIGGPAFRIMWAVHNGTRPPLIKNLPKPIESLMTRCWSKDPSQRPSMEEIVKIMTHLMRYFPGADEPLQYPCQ
Experimental: as §1, §2, §3

Fms (h) (CSF1R) = biological target: T11, Fms (h) (CSF1R) (Homo sapiens, UniProt P07333); assay: Kinase IC50 (Eurofins KinaseProfiler); format: biochemical
T11 construct: purchased Eurofins (KinaseProfiler service)
Experimental: as §1, §2, §3

PTK5 (h) = biological target: T12, PTK5 (h) (Homo sapiens, UniProt P42685); assay: Kinase IC50 (Eurofins KinaseProfiler); format: biochemical
T12 construct: purchased Eurofins
Experimental: as §1, §2, §3

Aurora-B (h) = biological target: T13, Aurora-B (h) (Homo sapiens, UniProt Q96GD4); assay: Kinase IC50 (Eurofins KinaseProfiler); format: biochemical
T13 construct: purchased Eurofins
T13 sequence (Q96GD4 whole entry): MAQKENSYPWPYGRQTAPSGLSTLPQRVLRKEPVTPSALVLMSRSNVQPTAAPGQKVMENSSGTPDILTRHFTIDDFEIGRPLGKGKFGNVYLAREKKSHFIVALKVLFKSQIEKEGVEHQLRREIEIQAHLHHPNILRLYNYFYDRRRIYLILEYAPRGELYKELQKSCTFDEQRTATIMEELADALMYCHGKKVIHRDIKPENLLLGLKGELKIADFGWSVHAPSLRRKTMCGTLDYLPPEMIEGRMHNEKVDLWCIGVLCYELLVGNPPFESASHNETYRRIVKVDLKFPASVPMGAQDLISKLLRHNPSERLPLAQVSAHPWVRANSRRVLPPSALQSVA
Experimental: as §1, §2, §3

Wee1 (h) = biological target: T14, Wee1 (h) (Homo sapiens, UniProt P30291); assay: Kinase IC50 (Eurofins KinaseProfiler); format: biochemical
T14 construct: purchased Eurofins
Experimental: as §1, §2, §3

TYK2 (h) = biological target: T15, TYK2 (h) (Homo sapiens, UniProt P29597); assay: Kinase IC50 (Eurofins KinaseProfiler); format: biochemical
T15 construct: purchased Eurofins
Experimental: as §1, §2, §3

IKKβ (h) = biological target: T16, IKKβ (h) (Homo sapiens, UniProt O14920); assay: Kinase IC50 (Eurofins KinaseProfiler); format: biochemical
T16 construct: purchased Eurofins (KinaseProfiler service)
Experimental: as §1, §2, §3

KDR (h) = biological target: T17, KDR (h) (Homo sapiens, UniProt P35968); assay: Kinase IC50 (Eurofins KinaseProfiler); format: biochemical
T17 construct: purchased Eurofins (KinaseProfiler service)
Experimental: as §1, §2, §3

SAPK3 (h) = biological target: T18, SAPK3 (h) (Homo sapiens, UniProt P53778); assay: Kinase IC50 (Eurofins KinaseProfiler); format: biochemical
T18 construct: purchased Eurofins
T18 sequence (P53778 whole entry): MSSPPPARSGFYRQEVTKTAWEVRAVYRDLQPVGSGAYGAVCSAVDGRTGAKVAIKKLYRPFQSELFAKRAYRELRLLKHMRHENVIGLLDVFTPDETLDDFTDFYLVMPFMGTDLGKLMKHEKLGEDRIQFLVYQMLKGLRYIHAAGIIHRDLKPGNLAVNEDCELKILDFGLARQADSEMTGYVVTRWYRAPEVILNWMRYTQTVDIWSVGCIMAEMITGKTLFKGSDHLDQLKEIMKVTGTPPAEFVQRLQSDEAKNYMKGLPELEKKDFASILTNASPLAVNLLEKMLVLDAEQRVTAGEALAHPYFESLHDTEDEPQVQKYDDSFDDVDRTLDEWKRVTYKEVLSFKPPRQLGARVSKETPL
Experimental: as §1, §2, §3

PKBα (h) = biological target: T19, PKBα (h) (Homo sapiens, UniProt P31749); assay: Kinase IC50 (Eurofins KinaseProfiler); format: biochemical
T19 construct: purchased Eurofins
Experimental: as §1, §2, §3

LOK (h) = biological target: T20, LOK (h) (Homo sapiens, UniProt O94804); assay: Kinase IC50 (Eurofins KinaseProfiler); format: biochemical
T20 construct: purchased Eurofins (KinaseProfiler service)
Experimental: as §1, §2, §3

SGK3 (h) = biological target: T21, SGK3 (h) (Homo sapiens, UniProt Q96BR1); assay: Kinase IC50 (Eurofins KinaseProfiler); format: biochemical
T21 construct: purchased Eurofins
T21 sequence (Q96BR1 whole entry): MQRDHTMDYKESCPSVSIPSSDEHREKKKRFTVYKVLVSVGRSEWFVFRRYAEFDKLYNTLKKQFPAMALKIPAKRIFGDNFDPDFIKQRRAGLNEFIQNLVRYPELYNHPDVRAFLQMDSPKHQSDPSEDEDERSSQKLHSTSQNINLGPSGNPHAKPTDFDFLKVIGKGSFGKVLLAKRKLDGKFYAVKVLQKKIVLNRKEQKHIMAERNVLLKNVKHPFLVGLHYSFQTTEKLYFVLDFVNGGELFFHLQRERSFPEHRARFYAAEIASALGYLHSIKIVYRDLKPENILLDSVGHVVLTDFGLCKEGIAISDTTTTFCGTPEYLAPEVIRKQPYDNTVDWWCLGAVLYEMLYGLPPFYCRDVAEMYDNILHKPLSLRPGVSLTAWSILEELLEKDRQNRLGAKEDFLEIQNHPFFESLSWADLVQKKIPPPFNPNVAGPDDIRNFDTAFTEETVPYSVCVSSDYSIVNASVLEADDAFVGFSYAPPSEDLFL
Experimental: as §1, §2, §3

c-RAF (h) = biological target: T22, c-RAF (h) (Homo sapiens, UniProt P04049); assay: Kinase IC50 (Eurofins KinaseProfiler); format: biochemical
T22 construct: purchased Eurofins (KinaseProfiler service)
Experimental: as §1, §2, §3

PrKX (h) = biological target: T23, PrKX (h) (Homo sapiens, UniProt P51817); assay: Kinase IC50 (Eurofins KinaseProfiler); format: biochemical
T23 construct: purchased Eurofins
Experimental: as §1, §2, §3

Ret (V804M) (h) = biological target: T24, Ret (V804M) (h) (Homo sapiens, UniProt P07949, V804M); assay: Kinase IC50 (Eurofins KinaseProfiler); format: biochemical
T24 construct: purchased Eurofins
Experimental: as §1, §2, §3

CSK (h) = biological target: T25, CSK (h) (Homo sapiens, UniProt P41240); assay: Kinase IC50 (Eurofins KinaseProfiler); format: biochemical
T25 construct: purchased Eurofins (KinaseProfiler service)
T25 sequence (P41240 whole entry): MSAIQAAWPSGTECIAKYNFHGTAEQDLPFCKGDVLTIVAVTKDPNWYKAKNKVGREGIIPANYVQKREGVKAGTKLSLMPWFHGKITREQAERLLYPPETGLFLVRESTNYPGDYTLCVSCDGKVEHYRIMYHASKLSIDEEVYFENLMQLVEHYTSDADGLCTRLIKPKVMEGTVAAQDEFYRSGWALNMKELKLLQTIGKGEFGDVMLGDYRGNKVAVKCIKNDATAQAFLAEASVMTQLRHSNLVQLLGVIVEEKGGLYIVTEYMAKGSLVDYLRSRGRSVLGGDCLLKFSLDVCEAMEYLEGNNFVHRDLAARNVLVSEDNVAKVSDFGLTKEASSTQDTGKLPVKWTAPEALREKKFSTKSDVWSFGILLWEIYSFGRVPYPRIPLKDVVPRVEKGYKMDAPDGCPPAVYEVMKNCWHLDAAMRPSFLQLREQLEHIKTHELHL
Experimental: as §1, §2, §3

ASK1 = ASK1 (Homo sapiens, UniProt Q99683); assay: Kinase profiling; format: binding; details: read-out: % Ctrl @ 1000 nM
MERTK = biological target: T26, MERTK (Homo sapiens, UniProt Q12866); assay: Kinase profiling; format: binding; details: read-out: % Ctrl @ 1000 nM
T26 construct: T7 phage fusion (stated for most kinases of the panel only); made in house; host or cells: T7 phage in E. coli (BL21-derived) or HEK-293 cells
T26 sequence (Q12866 21-999): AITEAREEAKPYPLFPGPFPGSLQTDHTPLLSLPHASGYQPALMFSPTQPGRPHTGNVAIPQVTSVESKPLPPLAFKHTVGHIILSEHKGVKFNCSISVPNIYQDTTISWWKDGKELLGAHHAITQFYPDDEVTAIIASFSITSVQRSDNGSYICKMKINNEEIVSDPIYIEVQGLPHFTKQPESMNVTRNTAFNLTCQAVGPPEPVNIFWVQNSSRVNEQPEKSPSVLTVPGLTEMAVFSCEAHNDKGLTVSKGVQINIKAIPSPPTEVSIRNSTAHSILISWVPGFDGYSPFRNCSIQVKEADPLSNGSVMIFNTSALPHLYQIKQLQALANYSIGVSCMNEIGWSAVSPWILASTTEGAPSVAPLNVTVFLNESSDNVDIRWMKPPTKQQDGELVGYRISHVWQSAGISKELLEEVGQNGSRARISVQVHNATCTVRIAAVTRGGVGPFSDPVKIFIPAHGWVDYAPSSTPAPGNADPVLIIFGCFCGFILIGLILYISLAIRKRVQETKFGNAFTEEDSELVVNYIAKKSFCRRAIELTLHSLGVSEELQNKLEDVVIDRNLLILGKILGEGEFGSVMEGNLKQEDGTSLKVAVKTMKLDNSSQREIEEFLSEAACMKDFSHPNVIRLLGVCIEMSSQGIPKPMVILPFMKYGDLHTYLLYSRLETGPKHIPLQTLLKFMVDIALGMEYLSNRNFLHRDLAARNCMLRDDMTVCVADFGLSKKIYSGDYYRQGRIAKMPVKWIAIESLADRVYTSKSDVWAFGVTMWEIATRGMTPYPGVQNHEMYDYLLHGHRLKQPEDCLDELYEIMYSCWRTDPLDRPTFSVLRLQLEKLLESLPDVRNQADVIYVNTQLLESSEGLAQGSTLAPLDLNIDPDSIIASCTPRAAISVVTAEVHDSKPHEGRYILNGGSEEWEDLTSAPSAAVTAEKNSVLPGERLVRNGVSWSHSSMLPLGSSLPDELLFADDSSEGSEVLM

PFPK5 (P.falciparum) = PFPK5 (P.falciparum) (Plasmodium falciparum, UniProt P61075); assay: Kinase profiling; format: binding; details: read-out: % Ctrl @ 1000 nM
Sequence of PFPK5 (P.falciparum) (P61075 whole entry): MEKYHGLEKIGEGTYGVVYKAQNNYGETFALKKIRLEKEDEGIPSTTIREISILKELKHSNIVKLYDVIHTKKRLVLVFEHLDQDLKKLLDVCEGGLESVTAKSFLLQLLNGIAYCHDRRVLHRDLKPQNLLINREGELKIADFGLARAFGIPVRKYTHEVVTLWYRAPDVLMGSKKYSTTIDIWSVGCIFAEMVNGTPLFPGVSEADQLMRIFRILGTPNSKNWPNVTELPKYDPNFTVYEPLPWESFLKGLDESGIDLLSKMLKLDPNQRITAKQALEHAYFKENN

EGFR (G719C) = EGFR (G719C) (Homo sapiens, UniProt P00533, G719C); assay: Kinase profiling; format: binding; details: read-out: % Ctrl @ 1000 nM
TXK = TXK (Homo sapiens, UniProt P42681); assay: Kinase profiling; format: binding; details: read-out: % Ctrl @ 1000 nM
CDKL5 = CDKL5 (Homo sapiens, UniProt O76039); assay: Kinase profiling; format: binding; details: read-out: % Ctrl @ 1000 nM

Cc1cc(Oc2cc(NC(=O)C3CC3)ncn2)ccc1NC(=O)Nc1ccc(Cl)c(C(F)(F)F)c1 [CBT-102]
remaining activity at 1 µM (TYRO3): 82%
remaining activity at 1 µM (CSNK1G3): 96%
remaining activity at 1 µM (KIT (V559D, V654A)): 2.8%
IC50 (DDR1 (h)): 0.034 µM
IC50 (CDKL3 (h)): > 10 µM
IC50 (PDGFRα (V561D) (h)): 0.028 µM
IC50 (MAP4K4 (h)): 0.763 µM
IC50 (Flt3 (h)): 1.09 µM
IC50 (SAPK2a (h)): 0.18 µM
IC50 (FGFR2 (h)): 0.596 µM
IC50 (Fgr (h)): 1.43 µM
IC50 (FAK (h)): > 10 µM
IC50 (TAK1 (h)): 0.481 µM
IC50 (Fms (h) (CSF1R)): 0.043 µM
IC50 (PTK5 (h)): 0.052 µM
IC50 (Aurora-B (h)): 0.525 µM
IC50 (Wee1 (h)): > 10 µM
IC50 (TYK2 (h)): > 10 µM
IC50 (IKKβ (h)): > 10 µM
IC50 (KDR (h)): 0.025 µM
IC50 (SAPK3 (h)): 1.2 µM
IC50 (PKBα (h)): > 10 µM
IC50 (LOK (h)): 1.09 µM
IC50 (SGK3 (h)): > 10 µM
IC50 (c-RAF (h)): 0.031 µM
IC50 (PrKX (h)): > 10 µM
IC50 (Ret (V804M) (h)): 0.693 µM
IC50 (CSK (h)): > 10 µM
remaining activity at 1 µM (ASK1): 91%
remaining activity at 1 µM (MERTK): 23%
remaining activity at 1 µM (PFPK5 (P.falciparum)): 100%
remaining activity at 1 µM (EGFR (G719C)): 66%
remaining activity at 1 µM (TXK): 100%
remaining activity at 1 µM (CDKL5): 97%
